# Test results taken from patent US20090192327A1, “METHODS AND COMPOSITIONS FOR INHIBITING BIOFILMS” (Sequoia Sciences, Inc., priority 2004, published 2009).
# Entries after “also recorded” stand apart in the source; their conditions may differ.
# Assays:
# [1] = tested on: Escherichia coli; test: Minimum inhibitory concentration (NCCLS broth microdilution); assay type: cell-based; conditions: LB media with 0.2% glucose, 35° C. for 20-24 hours
# Description: (§1) The minimum inhibitory concentrations (MICs) for several of the specific biofilm inhibitors described herein were determined against several targets, including P. aeruginosa, E. coli, and Staphylococcus aureus. The MICs of the biofilm inhibitors were measured using the reference broth microdilution method recommended by the National Committee for Clinical Laboratory Standards (NCCLS).
# (§2) […]. The negative control, generally, included the solvent in which the test compounds were dissolved. In this example, the wells correlating to the negative controls included ethanol (without any biofilm inhibitors).
# (§3) In this example, 150 μl of sterile media was added to each well (LB media with 0.2% glucose), along with appropriate volumes of concentrated solutions of the inhibitors to be tested, followed by 50 μl of bacterial inoculum. Thus, each well contained a final volume of approximately 200 μl (not including the volume of the concentrated inhibitor). […]. The plate was subsequently rinsed, stained, and analyzed in accordance with the procedures described in Example 1.
# (§4) Tables 7, 8, and 9 summarize the data observed and, specifically, the MICs calculated for the several compounds referenced therein against P. aeruginosa, E. coli, and S. aureus, respectively. The minimum inhibitory concentrations were calculated as the lowest inhibitor concentration at which biofilm inhibition was observed.
# [2] = tested on: Pseudomonas aeruginosa; test: as above; assay type: cell-based; conditions: LB media with 0.2% glucose, 35° C. for 20-24 hours
# Description: The minimum inhibitory concentrations (MICs) for several of the specific biofilm inhibitors described herein were determined against several targets, including P. aeruginosa, E. coli, and Staphylococcus aureus. The MICs of the biofilm inhibitors were measured using the reference broth microdilution method recommended by the National Committee for Clinical Laboratory Standards (NCCLS). […] In each assay, positive and negative controls were employed, wherein the positive control included an antimicrobial agent with a known potency range that was used to ensure proper assay performance. The negative control, generally, included the solvent in which the test compounds were dissolved. In this example, the wells correlating to the negative controls included ethanol (without any biofilm inhibitors). […] Thus, each well contained a final volume of approximately 200 μl (not including the volume of the concentrated inhibitor). […] After bacterial inoculation and loading of test and control samples, the plate was incubated in an ambient air environment at 35° C. for 20-24 hours. The plate was subsequently rinsed, stained, and analyzed in accordance with the procedures described in Example 1. […] The minimum inhibitory concentrations were calculated as the lowest inhibitor concentration at which biofilm inhibition was observed.
# [3] = tested on: human hepatocellular carcinoma cells (HepG2); test: Cytotoxicity, fluorometric detection of mitochondrial activity; assay type: cell-based; conditions: triplicate, approximate, gross cytotoxicity
# From the text: Met. […] Chlorpromazine (or its equivalent) was used as a positive control.
# [4] = tested on: Pseudomonas aeruginosa; test: Microtiter plate biofilm inhibition assay (crystal violet); assay type: cell-based; conditions: 10 μg/ml, LB media with 0.2% glucose, 24 hours at room temperature, average of three wells
# Description: A microtiter plate assay was used to quantitatively measure the effect each tested compound had on the ability of bacteria to form a biofilm. In this example, a concentrated solution of each compound tested was loaded separately into three separate wells of a polystyrene microtiter plate. In addition, each assay included triplicate wells correlating to negative and positive controls. For the positive controls, biofilm inhibitors of known activity were used, whereas no inhibitors were added to wells correlating to negative controls. […] Thus, each well contained a final volume of approximately 200 μl (not including the volume of the concentrated inhibitor). […] The microtiter plates were then placed on a shaker for 24 hours at room temperature. After the 24 hour incubation period, the microtiter plate was removed from the shaker, rinsed, and stained. During the rinsing step, the test compound, media, and bacterial inoculum solution was drained from the plate, approximately 300 μl of 0.1M phosphate buffered saline (PBS) was added to each well, which was subsequently drained from the plate. The rinsing step removed any suspended cells from the assay. 0.1% crystal violet stain was added to each well for approximately 20 minutes. Next, the crystal violet solution was drained from the microtiter plate. The plate was rinsed with PBS as described above four (4) times to remove any excess stain from the plate. Following the PBS rinsing steps, the plate was eluted with 250 μl/well of ethanol, which improved the detection of the stain. The plate was immediately analyzed spectrophotometrically at 540 nm using a microtiter plate reader. The inhibitory effect each compound had on the bacteria's ability to form a biofilm on the surface of each well was determined as follows: The absorbance values observed for each set of three (3) wells correlating with a test compound or control were averaged. The average absorbance value for each test compound was compared to the average absorbance value of the negative control (the positive control was employed to verify proper assay function). In general, biofilm inhibition activity is inversely proportional to absorbance values, whereby, for example, low absorbance values correlate with significant inhibition activity and high absorbance values correlate with small or no inhibition activity. The approximate percent inhibition observed for each compound was calculated by comparing the average absorbance value for each test compound to the average absorbance value for the negative controls. Table 2 summarizes the average percent inhibition observed for the tested compounds listed against biofilms generated by Pseudomonas aeruginosa.
# [5] = tested on: Staphylococcus epidermidis; test: Biofilm inhibition assay against Staphylococcus epidermidis; assay type: cell-based; conditions: final concentration of 10 μg/ml, read-out: Inhibition of biofilm formation by S. epidermidis
# [6] = tested on: E. coli JM109; test: Biofilm inhibition assay in 96 well plates (adapted from Pratt and Kolter); assay type: cell-based, Escherichia coli; conditions: 10 μg/ml, LB with or without 0.2% glucose, 37° C. for two days without shaking
# Description: Such compounds were evaluated using an assay adapted from a protocol reported in Pratt and Kolter, 1998, Molecular Microbiology, 30: 285-293; and Li et al., 2001, J. Bacteriol., 183: 897-908. […] Negative controls included only ethanol (the solvent for each test compound). To quantify the biofilm mass, the suspension culture was removed, the biofilm was washed three times with water, and then stained with 0.1% crystal violet for 20 minutes. Next, the plates were washed three times with water and analyzed by spectrophotometry at 540 nm to quantify the biofilm mass (by comparing the biofilm mass in the wells containing a test compound to that of the control wells).
# [7] = tested on: Pseudomonas aeruginosa strain PAO 1; test: Rotating disk reactor biofilm test in combination with tobramycin; assay type: cell-based; conditions: 48 hours biofilm; compound 110 approximately 100 μg/mL for 24 hours; tobramycin 100 μg/mL for two hours; polystyrene coupons
# Description: In this example, compound 110 was tested for biofilm inhibition with Pseudomonas aeruginosa in combination with Tobramycin. Specifically, biofilm formation of P. aeruginosa was evaluated using a standardized biofilm method with a rotating disk reactor (RDR), which is also known as “ASTM Standard Method #E-2196-02.” The rotating disk reactor consisted of a one-liter glass beaker fitted with a drain spout. The bottom of the vessel contained a magnetically driven rotor with six 1.27 cm diameter coupons constructed from polystyrene. The rotor consisted of a star-head magnetic stir bar upon which a disk was affixed to hold the coupons. The vessel (with the stir bar) was placed on a stir plate and rotated to provide fluid shear. A nutrient solution (AB Trace Medium with 0.3 mM glucose, see Table 5 below for specific formulation) was added through a stopper in the top of the reactor at a flow rate of 5 mL/min. The reactor volume was approximately 180 mL. At a volume of 180 mL, the residence time of the reactors was 36 minutes. The reactors were operated at room temperature (c.a. 26° C.). In this example, two RDRs were operated in parallel with one receiving compound 110 and the other serving as an untreated control. […] The plates were incubated for 24 hours at 37° C. before colony forming units (CFU) were determined.
# [8] = tested on: Staphylococcus aureus; test: Minimum inhibitory concentration (NCCLS broth microdilution); assay type: cell-based; conditions: LB media with 0.2% glucose; 35° C. for 20-24 hours
# Description: as §1, §2, §3, §4
# [9] = tested on: E. coli; test: Effect on viability/growth of E. coli (absorbance 620 nm); assay type: cell-based, Escherichia coli; conditions: 1 to 15 μg/mL; LB media; 37° C. for two days; FIG. 1
# Description: The dose/response behavior of compound 108 was tested against E. coli in LB media with and without 0.2% glucose. First, the effect of compound 108 on the viability of E. coli was measured. Compound 108 was added to a 96-well microtiter plate in triplicate wells to final concentrations of 0, 1, 2, 5, 10, and 15 μg/mL. Compound 108 was added to each well on the plate along with 50 μL of E. coli inoculum and 150 μL of LB and incubated at 37° C. for two days without shaking. After incubation, the plate was analyzed spectrophotometrically at 620 nm to quantitate the approximate levels of E. coli growth. The absorbance values observed for the test wells were averaged and compared to a negative control, i.e., wells containing no biofilm inhibitor.
# [10] = tested on: E. coli; test: Dose/response biofilm assay against E. coli (crystal violet, 540 nm); assay type: cell-based, Escherichia coli
# Description: In this example, dose/response characteristics of the biofilm inhibitors were measured using compound 108. The assay employed to measure such dose/response characteristics was adapted from a reported protocol. See Pratt and Kolter, 1998, Molecular Microbiology, 30: 285-293; and Li et al., 2001, J. Bacteriol., 183: 897-908.
# The biofilm inhibitory effect of compound 108 was then evaluated at different times and concentrations. In the first assay, compound 108 was added to the test system at the same time as the E. coli inoculum. Specifically, compound 108 was added to the system at final concentrations of 0, 1, 2, 5, and 10 μg/mL along with 50 μL of E. coli inoculum and 150 μL of LB media to measure its ability to inhibit the formation of biofilms. In a second assay, compound 108 was added after a biofilm had formed, i.e., 24 hours after the assay plate was inoculated with E. coli in LB media. In a third assay, compound 108 was tested at 0, 1, 2, 5, 10, and 15 μg/mL against E. coli in LB media with 0.2% glucose (whereby compound 108 was introduced into the system at the time of inoculation).
# The suspension culture in each of the assay systems described above was drained from the plate and the residual biofilm, if any, was washed three (3) times with water. A solution containing 0.1% crystal violet was added to each well and maintained thereon for approximately 20 minutes. Following the staining procedure, each well was rinsed three (3) times with water. Each well was then analyzed spectrophotometrically in a microtiter plate reader at 540 nm to quantitate approximate biofilm mass and inhibition of biofilm growth by comparison to a negative control, which included inoculum and growth media alone.
compound,measurement,setting,value
"C[C@H]1[C@H](C)CC[C@]2(C(=O)O)CC[C@]3(C)C(=CC[C@@H]4[C@@]5(C)CC[C@H](O)C(C)(C)[C@@H]5CC[C@]43C)[C@H]12 [Compound 110, ursolic acid]",MIC,"[1]; Escherichia coli, read-out: MIC (μg/mL) - Escherichia coli",> 10 µg/mL
same,MIC,"[2]; Pseudomonas aeruginosa, read-out: MIC (μg/mL) - Pseudomonas aeruginosa",> 128 µg/mL
same,Inhibition at 30 μM - Hep G2 cells,[3],2%
same,inhibition at 10 µg/mL,[4]; Pseudomonas aeruginosa,35%
same,inhibition at 10 µg/mL,[5],~25%
same,inhibition at 10 µg/mL,"[6]; Escherichia coli, JM 109, 48 h",80%
same,CFU (in log 10),[7],7.1 CFU (in log 10)
C[C@@H]1CC[C@]2(C(=O)O)CCC3(C)C(=CCC4C5(C)C[C@@H](O)[C@H](O)C(C)(C)C5CCC43C)C2[C@H]1C (stereo partly drawn) [Compound 108],MIC (μg/mL) - Staphylococcus aureus,[8],>32 µg/mL
same,MIC (μg/mL) - Escherichia coli,[1],>15 µg/mL
same,MIC (μg/mL) - Pseudomonas aeruginosa,[2],>10 µg/mL
same,Biofilm Inhibition- Pseudomonas aeruginosa,[4],52%
same,Biofilm Inhibition- Escherichia coli,[6],74%
same,Effect on growth of E. coli,[9],did not inhibit the growth; also recorded: does not inhibit the growth
same,Prevention of biofilm growth at 15 μg/mL,"[10]; 15 μg/mL, E. coli in LB, added with inoculum, 0 through 50 hours of incubation, FIG. 2",almost completely prevent biofilm growth
same,Concentration as low as which effective at reducing biofilm mass,"[10]; E. coli in LB with 0.2% glucose, added along with the inoculum, FIG. 5",1 µg/mL
same,Concentration as low as which reduces existing biofilm mass,"[10]; E. coli in LB, added 24 hours after inoculation, FIG. 4",1 µg/mL
same,Concentration as low as which effective in preventing biofilm formation,"[10]; E. coli in LB, added along with the inoculum, FIGS. 2 and 3",1 µg/mL
same,Estimated mass of existing biofilm after 24 hours of incubation with compound,"[10]; each of the concentrations tested (1, 2, 5, 10 μg/mL), added 24 hours after inoculation, approximately 50 hours post inoculation, FIG. 4",decreased significantly
